According to patent US10131652B2, “Pyrimidinyloxy benzene derivatives as herbicides” (E. I. DU PONT DE NEMOURS AND COMPANY, priority 2014, dated 2018):

Tests used:
Assay type in all cases: in vivo
[1] = tested on: barnyardgrass (Echinochloa crus-galli); assay: Test C flooded paddy test plant response; details: Flood, 250 g ai/ha, scale of 0 to 100 where 0 is no effect and 100 is complete control, 13 to 15 days
In short: (§1)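 Water-applied treatment: compounds go directly into floodwater standing 3 cm over the soil of pots holding 2-leaf-stage plants. Depth is kept constant; plants stay in a greenhouse 13 to 15 days before visual comparison with controls on a 0–100 scale.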

[2] = tested on: small-flower umbrella sedge (Cyperus difformis); assay: Test C flooded paddy test plant response; details: Flood, 250 g ai/ha, scale of 0 to 100 where 0 is no effect and 100 is complete control, 13 to 15 days
In short: as §1

[3] = tested on: ducksalad (Heteranthera limosa); assay: Test C flooded paddy test plant response; details: Flood, 250 g ai/ha, scale of 0 to 100 where 0 is no effect and 100 is complete control, 13 to 15 days
In short: as §1

rice (Oryza sativa) = assay: Test C flooded paddy test plant response; details: Flood, 250 g ai/ha, scale of 0 to 100 where 0 is no effect and 100 is complete control, 13 to 15 days
In short: as §1

[4] = tested on: oilseed rape (Brassica napus); assay: Test D pre-/postemergence plant response
In short: (§2)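 Visual rating, 0–100 scale (0 = no effect, 100 = complete control), versus untreated controls 13 to 15 days after treatment in greenhouse. Preemergence: seeds in loam/sand soil. Postemergence: 2 to 18 cm plants, 1- to 4-leaf stage, peat-based medium. Compounds formulated in non-phytotoxic solvent plus surfactant.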

[5] = tested on: barnyardgrass (Echinochloa crus-galli); assay: Test D pre-/postemergence plant response; details: for Barnyardgrass plant response rating / Plant response rating, Barnyardgrass: Postemergence; for Plant response rating, Barnyardgrass: scale 0 to 100, 0 no effect, 100 complete control
In short: as §2

[6] = tested on: giant foxtail (Setaria faberii); assay: Test D pre-/postemergence plant response; details: for Foxtail, Giant plant response rating / Plant response rating, Foxtail, Giant: Postemergence; for Plant response rating, Foxtail, Giant: scale 0 to 100, 0 no effect, 100 complete control
In short: as §2

[7] = tested on: velvetleaf (Abutilon theophrasti); assay: Test D pre-/postemergence plant response
In short: as §2

[8] = tested on: johnsongrass (Sorghum halepense); assay: Test D pre-/postemergence plant response; details: for Plant response rating, Johnsongrass: scale 0 to 100, 0 no effect, 100 complete control
In short: as §2

[9] = tested on: blackgrass (Alopecurus myosuroides); assay: Test D pre-/postemergence plant response; details: for Blackgrass plant response rating / Plant response rating, Blackgrass: Postemergence; for Plant response rating, Blackgrass: scale 0 to 100, 0 no effect, 100 complete control
In short: as §2

[10] = tested on: pigweed (Amaranthus retroflexus); assay: Test D pre-/postemergence plant response; details: for Plant response rating, Pigweed: scale 0 to 100, 0 no effect, 100 complete control
In short: as §2

kochia (Kochia scoparia) = assay: Test B pre-/postemergence plant response
In short: (§3)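 Evaluation is visual, about 10 days after application, rating injury from 0 (none) to 100 (complete control) relative to untreated controls. Application was a preemergence soil spray on seeded pots or a postemergence spray on one- to two-leaf plants.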

[11] = tested on: Italian ryegrass (Lolium multiflorum); assay: Test B pre-/postemergence plant response
In short: as §3

[12] = tested on: ragweed (common ragweed, Ambrosia elatior); assay: Test B pre-/postemergence plant response
In short: as §3

[13] = 125 g ai/ha, postemergence, 0 to 100 scale, 0 no effect, 100 complete control
[14] = Postemergence, 500 g ai/ha, 0 to 100 scale (0 no effect, 100 complete control)
[15] = Preemergence, 125 g ai/ha, 0 to 100 scale (0 no effect, 100 complete control)
[16] = Preemergence, 500 g ai/ha, 0 to 100 scale where 0 is no effect and 100 is complete control
[17] = Postemergence, 31 g ai/ha, scale 0 to 100 (0 no effect, 100 complete control)
[18] = Postemergence, 62 g ai/ha, scale 0 to 100, 0 no effect, 100 complete control
[19] = 16 g ai/ha, scale 0 to 100 (0 no effect, 100 complete control)
[20] = 31 g ai/ha, scale 0 to 100 (0 no effect, 100 complete control)
[21] = 31 g ai/ha, Preemergence, 0 to 100 scale where 0 is no effect and 100 is complete control
[22] = Postemergence, 31 g ai/ha, 0 to 100 scale (0 no effect, 100 complete control)

SMILES: N#Cc1cccc(Oc2ncc(Cl)cn2)c1-c1cc(C(F)(F)F)ccn1 [Compound 158, 5-chloro-2-[3-cyano-2-[4-(trifluoromethyl)-2-pyridinyl]phenoxy]pyrimidine]
- pest or weed control at 250 g/ha ([1]; Echinochloa crus-galli, read-out: Barnyardgrass plant response rating): 0%
- pest or weed control at 250 g/ha ([2]; Cyperus difformis, read-out: Sedge, Umbrella plant response rating): 0%
- pest or weed control at 250 g/ha ([3]; Heteranthera limosa, read-out: Ducksalad plant response rating): 50%
- plant injury at 250 g/ha (rice (Oryza sativa); Oryza sativa, read-out: Rice plant response rating): 0%
- plant injury at 125 g/ha ([4]; Brassica napus, pre-emergence, Preemergence, 125 g ai/ha, read-out: Plant response rating (scale 0 to 100), Oilseed Rape): 98%
- plant injury at 16 g/ha ([4]; Brassica napus, pre-emergence, Preemergence, 16 g ai/ha, scale 0 to 100 (0 no effect, 100 complete control), read-out: Plant response rating, Oilseed Rape): 40%
- plant injury at 31 g/ha ([4]; Brassica napus, pre-emergence, Preemergence, 31 g ai/ha, scale 0 to 100 (0 no effect, 100 complete control), read-out: Plant response rating, Oilseed Rape): 50%
- plant injury at 62 g/ha ([4]; Brassica napus, pre-emergence, Preemergence, 62 g ai/ha, scale 0 to 100 (0 no effect, 100 complete control), read-out: Plant response rating, Oilseed Rape): 90%
- pest or weed control at 125 g/ha ([5]; Echinochloa crus-galli, pre-emergence, Preemergence, 125 g ai/ha, read-out: Plant response rating (scale 0 to 100), Barnyardgrass): 20%
- pest or weed control at 16 g/ha ([5]; Echinochloa crus-galli, pre-emergence, Preemergence, 16 g ai/ha, scale 0 to 100 (0 no effect, 100 complete control), read-out: Plant response rating, Barnyardgrass): 0%
- pest or weed control at 31 g/ha ([5]; Echinochloa crus-galli, pre-emergence, Preemergence, 31 g ai/ha, scale 0 to 100 (0 no effect, 100 complete control), read-out: Plant response rating, Barnyardgrass): 5%
- pest or weed control at 62 g/ha ([5]; Echinochloa crus-galli, pre-emergence, Preemergence, 62 g ai/ha, scale 0 to 100 (0 no effect, 100 complete control), read-out: Plant response rating, Barnyardgrass): 35%
- pest or weed control at 125 g/ha ([6]; Setaria faberi, pre-emergence, Preemergence, 125 g ai/ha, read-out: Plant response rating (scale 0 to 100), Foxtail, Giant): 100%
- pest or weed control at 16 g/ha ([6]; Setaria faberi, pre-emergence, Preemergence, 16 g ai/ha, scale 0 to 100 (0 no effect, 100 complete control), read-out: Plant response rating, Foxtail, Giant): 5%
- pest or weed control at 31 g/ha ([6]; Setaria faberi, pre-emergence, Preemergence, 31 g ai/ha, scale 0 to 100 (0 no effect, 100 complete control), read-out: Plant response rating, Foxtail, Giant): 55%
- pest or weed control at 62 g/ha ([6]; Setaria faberi, pre-emergence, Preemergence, 62 g ai/ha, scale 0 to 100 (0 no effect, 100 complete control), read-out: Plant response rating, Foxtail, Giant): 85%
- pest or weed control at 125 g/ha ([7]; Abutilon theophrasti, pre-emergence, Preemergence, 125 g ai/ha, read-out: Plant response rating (scale 0 to 100), Velvetleaf): 70%
- pest or weed control at 16 g/ha ([7]; Abutilon theophrasti, pre-emergence, Preemergence, 16 g ai/ha, scale 0 to 100 (0 no effect, 100 complete control), read-out: Plant response rating, Velvetleaf): 35%
- pest or weed control at 31 g/ha ([7]; Abutilon theophrasti, pre-emergence, Preemergence, 31 g ai/ha, scale 0 to 100 (0 no effect, 100 complete control), read-out: Plant response rating, Velvetleaf): 25%
- pest or weed control at 62 g/ha ([7]; Abutilon theophrasti, pre-emergence, Preemergence, 62 g ai/ha, scale 0 to 100 (0 no effect, 100 complete control), read-out: Plant response rating, Velvetleaf): 40%
- pest or weed control at 125 g/ha ([8]; Sorghum halepense, pre-emergence, Preemergence, 125 g ai/ha, read-out: Plant response rating (scale 0 to 100), Johnsongrass): 40%
- pest or weed control at 16 g/ha ([8]; Sorghum halepense, pre-emergence, Preemergence, 16 g ai/ha, scale 0 to 100 (0 no effect, 100 complete control), read-out: Plant response rating, Johnsongrass): 0%
- pest or weed control at 31 g/ha ([8]; Sorghum halepense, pre-emergence, Preemergence, 31 g ai/ha, scale 0 to 100 (0 no effect, 100 complete control), read-out: Plant response rating, Johnsongrass): 0%
- pest or weed control at 62 g/ha ([8]; Sorghum halepense, pre-emergence, Preemergence, 62 g ai/ha, scale 0 to 100 (0 no effect, 100 complete control), read-out: Plant response rating, Johnsongrass): 10%
- pest or weed control at 125 g/ha ([9]; Alopecurus myosuroides, pre-emergence, Preemergence, 125 g ai/ha, read-out: Plant response rating (scale 0 to 100), Blackgrass): 90%
- pest or weed control at 16 g/ha ([9]; Alopecurus myosuroides, pre-emergence, Preemergence, 16 g ai/ha, scale 0 to 100 (0 no effect, 100 complete control), read-out: Plant response rating, Blackgrass): 0%
- pest or weed control at 31 g/ha ([9]; Alopecurus myosuroides, pre-emergence, Preemergence, 31 g ai/ha, scale 0 to 100 (0 no effect, 100 complete control), read-out: Plant response rating, Blackgrass): 15%
- pest or weed control at 62 g/ha ([9]; Alopecurus myosuroides, pre-emergence, Preemergence, 62 g ai/ha, scale 0 to 100 (0 no effect, 100 complete control), read-out: Plant response rating, Blackgrass): 50%
- pest or weed control at 125 g/ha ([10]; Amaranthus retroflexus, pre-emergence, Preemergence, 125 g ai/ha, read-out: Plant response rating (scale 0 to 100), Pigweed): 100%
- pest or weed control at 16 g/ha ([10]; Amaranthus retroflexus, pre-emergence, Preemergence, 16 g ai/ha, scale 0 to 100 (0 no effect, 100 complete control), read-out: Plant response rating, Pigweed): 70%
- pest or weed control at 31 g/ha ([10]; Amaranthus retroflexus, pre-emergence, Preemergence, 31 g ai/ha, scale 0 to 100 (0 no effect, 100 complete control), read-out: Plant response rating, Pigweed): 75%
- pest or weed control at 62 g/ha ([10]; Amaranthus retroflexus, pre-emergence, Preemergence, 62 g ai/ha, scale 0 to 100 (0 no effect, 100 complete control), read-out: Plant response rating, Pigweed): 100%
- Plant response rating, Kochia (kochia (Kochia scoparia); [13]): 70
- Plant response rating, Kochia (kochia (Kochia scoparia); [14]): 90
- Kochia plant response rating (kochia (Kochia scoparia); [15]): 100
- Plant response rating, Kochia (kochia (Kochia scoparia); [16]): 100
- Plant response rating, Ryegrass, Italian [11, 13]: 0
- Plant response rating, Ryegrass, Italian [11, 14]: 70
- Ryegrass, Italian plant response rating [11, 15]: 0
- Plant response rating, Ryegrass, Italian [11, 16]: 20
- Plant response rating, Ragweed [12, 13]: 0
- Plant response rating, Ragweed [12, 14]: 30
- Ragweed plant response rating [12, 15]: 0
- Plant response rating, Ragweed [12, 16]: 20

SMILES: FC(F)(Br)c1cc(-c2ccccc2Oc2ncc(Cl)cn2)no1 [Compound 162]
- Barnyardgrass plant response rating [1]: 0
- Sedge, Umbrella plant response rating [2]: 0
- Ducksalad plant response rating [3]: 0
- Rice plant response rating (rice (Oryza sativa)): 0
- Oilseed Rape plant response rating [4, 17]: 5
- Plant response rating, Oilseed Rape [4, 18]: 40
- Barnyardgrass plant response rating [5, 19]: 5
- Barnyardgrass plant response rating [5, 20]: 10
- Plant response rating, Barnyardgrass ([5]; 62 g ai/ha): 15
- Plant response rating, Barnyardgrass ([5]; 125 g ai/ha): 15
- Foxtail, Giant plant response rating [6, 19]: 10
- Foxtail, Giant plant response rating [6, 20]: 10
- Plant response rating, Foxtail, Giant ([6]; 62 g ai/ha): 10
- Plant response rating, Foxtail, Giant ([6]; 125 g ai/ha): 20
- Velvetleaf plant response rating [7, 17]: 40
- Plant response rating, Velvetleaf [7, 18]: 75
- Johnsongrass plant response rating [8, 17]: 5
- Plant response rating, Johnsongrass ([8]; Postemergence, 62 g ai/ha): 10
- Plant response rating, Johnsongrass ([8]; Postemergence, 125 g ai/ha): 20
- Blackgrass plant response rating [9, 19]: 0
- Blackgrass plant response rating [9, 20]: 30
- Plant response rating, Blackgrass ([9]; 62 g ai/ha): 30
- Plant response rating, Blackgrass ([9]; 125 g ai/ha): 45
- Pigweed plant response rating [10, 17]: 90
- Plant response rating, Pigweed ([10]; Postemergence, 62 g ai/ha): 100
- Plant response rating, Pigweed ([10]; Postemergence, 125 g ai/ha): 100
- Plant response rating, Kochia (kochia (Kochia scoparia); [21]): 70
- Plant response rating, Kochia (kochia (Kochia scoparia); [13]): 100
- Plant response rating, Kochia (kochia (Kochia scoparia); [22]): 90
- Kochia plant response rating (kochia (Kochia scoparia); [15]): 70
- Plant response rating, Ryegrass, Italian [11, 21]: 0
- Plant response rating, Ryegrass, Italian [11, 13]: 50
- Plant response rating, Ryegrass, Italian [11, 22]: 0
- Ryegrass, Italian plant response rating [11, 15]: 40
- Plant response rating, Ragweed [12, 21]: 0
- Plant response rating, Ragweed [12, 13]: 40
- Plant response rating, Ragweed [12, 22]: 0
- Ragweed plant response rating [12, 15]: 20
